Test results reported in patent US20230263822A1, “MODULATION OF FACTOR 11 EXPRESSION” (Ionis Pharmaceuticals, Inc., priority 2008, published 2023).
Strand notation (5' to 3'): a small letter for the sugar, then the base; units joined by * are phosphorothioate-linked, units joined directly phosphodiester-linked; [ ] holds rarer units or linkages, { } end groups; capitals alone tell only the bases. e = 2'-O-(2-methoxyethyl) (MOE); [5mC] = 5-methylcytosine; d = 2'-deoxy (DNA)

How the values were obtained:
human Factor 11 mRNA = assay: Dose-dependent inhibition of human Factor 11 in HepG2 cells, electroporation 123.46-10,000 nM (Example 31); type: cell-based
In short: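 HepG2 cells were electroporated with antisense oligonucleotide at 123.46, 370.37, 1,111.11, 3,333.33 and 10,000 nM and harvested about 16 hours later. Factor 11 mRNA was quantified by qRT-PCR and normalised to total RNA (RIBOGREEN). Inhibition is expressed relative to untreated cells.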

[1] = Tolerability in Sprague-Dawley rats: body weight and organ weight (Example 44); type: in vivo; conditions: 50 mg/kg s.c. twice per week for 6 weeks; for Change in Kidney weight / Change in Liver weight / Change in Spleen weight: end of study
[2] = Kidney function, BUN, urine protein to creatinine ratio in cynomolgus monkeys (Example 46); type: in vivo; conditions: for Urine protein/creatinine ratio: day 49
Procedure: Groups, each consisting of two male and two female monkeys, were injected subcutaneously with 25 mg/kg of ISIS 416850, ISIS 449709, ISIS 445522, ISIS 449710, ISIS 449707, ISIS 449711, ISIS 449708, 416858, and ISIS 445531. Antisense oligonucleotide was administered to the monkeys at 25 mg/kg three times per week for week 1 and 25 mg/kg twice per week for weeks 2 to 8. A control group, consisting of two male and two female monkeys was injected subcutaneously with PBS according to the same dosing regimen. Body weights were taken 14 days and 7 days before the start of treatment and were then measured weekly throughout the treatment period. Blood samples were collected 14 days and 5 days before the start of treatment and subsequently several times during the dosing regimen for PT and aPTT measurements, and measurement of various hematologic factors. On day 55, the monkeys were euthanized by exsanguination while under deep anesthesia, and organs harvested for further analysis.
To evaluate the impact of ISIS oligonucleotides on kidney function, urine samples were collected on different days. […] The ratio of urine protein to creatinine in urine samples after antisense oligonucleotide treatment was also calculated for day 49 and results are presented in Table 156. As observed in Tables 155 and 156, there were no significant increases in any of the kidney metabolic markers after antisense oligonucleotide treatment.

[3] = Day −5 (before start of treatment)
[4] = Day −14 (before start of treatment)

| Substance | Percent inhibition of Factor 11 mRNA at 123.47 nM (human Factor 11 mRNA; electroporation, 123.47 nM, approx. 16 hours, relative to untreated control cells) | Percent inhibition of Factor 11 mRNA at 370.37 nM (human Factor 11 mRNA; electroporation, 370.37 nM, approx. 16 hours, relative to untreated control cells) | Percent inhibition of Factor 11 mRNA at 1,111.11 nM (human Factor 11 mRNA; electroporation, 1,111.11 nM, approx. 16 hours, relative to untreated control cells) | Percent inhibition of Factor 11 mRNA at 3,333.33 nM (human Factor 11 mRNA; electroporation, 3,333.33 nM, approx. 16 hours, relative to untreated control cells) | Percent inhibition of Factor 11 mRNA at 10,000.0 nM (human Factor 11 mRNA; electroporation, 10,000.0 nM, approx. 16 hours, relative to untreated control cells) | IC50 (human Factor 11 mRNA; electroporation, Factor 11 mRNA expression) | body weight [1] | Change in Kidney weight [1] | Change in Liver weight [1] | Change in Spleen weight [1] | BUN levels ([2]; Day 31) | BUN levels ([2]; Day 55) | BUN levels [2, 3] | BUN levels [2, 4] | Urine protein/creatinine ratio [2] |
| --- | --- | --- | --- | --- | --- | --- | --- | --- | --- | --- | --- | --- | --- | --- | --- |
| 445522 (antisense eG*e[5mC]*eA*e[5mC]*eA*dG*dT*dT*dT*d[5mC]*dT*dG*dG*e[5mC]*eA*eG*eG*e[5mC]) [compound 445522] | 0% | 0% | 44% | 63% | 74% | 2900 nM | – | – | – | – | – | – | – | – | – |
| ISIS 449708: 3-8-3, 4-8-4, 2-10-2, 3-10-3 or 4-10-4 MOE microwalk gapmer (Table 46) (antisense eA*e[5mC]*eA*dG*dT*dT*dT*d[5mC]*dT*dG*dG*e[5mC]*eA*eG) | – | – | – | – | – | – | 382 g | +40% | +31% | +259% | 23 mg/dL | 23 mg/dL | 23 mg/dL | 25 mg/dL | 0.00 |
| ISIS 445522: 5-8-5 or 6-8-6 MOE microwalk gapmer (Table 44) (antisense eG*e[5mC]*eA*e[5mC]*eA*dG*dT*dT*dT*d[5mC]*dT*dG*dG*e[5mC]*eA*eG*eG*e[5mC]) | – | – | – | – | – | – | – | – | – | – | 22 mg/dL | 22 mg/dL | 22 mg/dL | 23 mg/dL | 0.01 |
| ISIS 445531: 5-8-5 or 6-8-6 MOE microwalk gapmer (Table 44) (antisense eG*eG*e[5mC]*eA*eT*dT*dG*dG*dT*dG*d[5mC]*dA*d[5mC]*eA*eG*eT*eT*eT) | – | – | – | – | – | – | – | – | – | – | 20 mg/dL | 22 mg/dL | 18 mg/dL | 22 mg/dL | 0.08 |
| ISIS 449710: 3-8-3, 4-8-4, 2-10-2, 3-10-3 or 4-10-4 MOE microwalk gapmer (Table 46) (antisense e[5mC]*eA*e[5mC]*dA*dG*dT*dT*dT*d[5mC]*dT*dG*dG*d[5mC]*eA*eG*eG) | – | – | – | – | – | – | 344 g | +50% | +82% | +302% | 19 mg/dL | 23 mg/dL | 19 mg/dL | 19 mg/dL | 0.00 |
